Measurements from patent US20250195523A1, “ORGANIC MOLECULES FOR TREATING MYELIN PATHOLOGIES” (ICM (INSTITUT DU CERVEAU ET DE LA MOELLE ÉPINIÈRE), priority 2022, published 2025).

Experiments:
[1] = tested on: cerebellar slices explants; assay: Ex vivo cerebellar organotypic explant culture, differentiation and myelination index; assay type: cell-based, mice; settings: 750 nM, three days (7-10 DIV)
Procedure: We prepared cerebellar organotypic cultures from newborn (P0) mice. Cerebellar parasagittal slices (350 μm thick) were cut on a McIlwain tissue chopper and transferred onto 30 mm diameter Millipore culture inserts with […] (Millicell, Millipore). Slices were maintained in incubators at 37° C., under a humidified atmosphere containing 5% CO2 in six-well-plates containing 1 mL of slice culture media. This medium includes basal medium eagle (Invitrogen), 25% complete HBSS, 27 mM D-glucose, 100 U/mL penicillin/streptomycin, 1 mM glutamine (Sigma) and 5% horse serum (New Zealand origin, heat inactivated; Invitrogen). Medium was renewed every 2 days until 7 DIV, reaching the appropriate culture periods to study OPC differentiation and myelination. […] Slices were collected and fixed for 1 h at RT in PBS-4% paraformaldehyde, washed 3 times in PBS, and incubated 20 min at 4° C. in Clark's solution (95% ethanol/5% acetic acid), then washed 3 times in PBS 1×.
For ex-vivo cerebellar slices, slices were incubated 20 min at 4° C. in Clark's solution (95% ethanol/5% acetic acid), then washed 3 times in PBS 1×. Then, sections were incubated for 1 hour in a blocking buffer (0.2% Triton X-100/4% bovine serum albumin/4% donkey serum/PBS). Slices were incubated for 2 hours with the following primary antibodies at RT: Goat anti-Sox10 (1:100, R&D Systems); Rabbit anti-Calbindin (1:1000; Swant); Rat anti-MBP (1:200; Abcam); Mouse anti-CC1 (IgG2b; 1:100, Calbiochem). Then slices were washed 3 times in PBS/0.1% Triton X-100 and incubated in blocking buffer (dark, RT) for 2 hours with appropriate secondary antibodies conjugated with Alexa Fluor 488, 594 and 647 (1:1000; Molecular Probes or Thermo Fisher) and Dapi (1:5000 from working solution at 5 mg/ml; Life Technologies; D1306). Finally, slices were washed 3 times in PBS/0.1% Triton X-100 after incubation and mounted in Fluoromount-G (SouthernBiotech).
Then, we firstly performed a simpler and faster experimental model using cerebellar slices explants to identify the best drugs having pro-oligodendrogenenic and pro-myelinating activities in this ex vivo model, to be used in the in vivo analyses. Indeed, this model allowed us to better assess later aspects of OL maturation, myelination, and cytotoxicity in a richer cellular system, also containing immune cells (microglia/macrophages) that are known to influence oligodendrogenesis and (re) myelination. In this model, the start of myelination takes place after 7 days in culture (FIG. 3A). […] We then analyzed the effect in terms of OL numbers (CC1+/Sox10+ cells) and myelination (MBP labeling on CaBP+ Purkinje cell axons), by immunodetection of all four markers in the same sections. We calculated the differentiation index as the ratio of Sox10+ cells being CC1+, and the myelination index as the ratio CaBP+ axons being MBP+. […] On the one hand, we used the adult focal de/remyelination induced by intracerebral injection of […] (LPC) mimicking de/remyelination of MS, and on the other hand, the neonatal chronic hypoxia model, mimicking PTB hypomyelination.

[2] = tested on: focal demyelination in the corpus callosum of adult mice; assay: Lysolecithin (LPC) induced focal de/remyelination model in adult mice, oral administration in drinking water; assay type: in vivo; settings: 7 dpl, oral daily
Procedure: We weighted and anesthetized 4 months old RjOrl: SWISS mice (Janvier) with isoflurane (induced at 3%, and maintained at 1.2-1.6%). We induced focal demyelinating lesions by injecting 0.5 μl of a solution of 1% lysolecithin (LPC, Sigma in 0.9% NaCl solution) into the corpus callosum. To do so, a glass-capillary connected to a 10 μl Hamilton syringe was fixed and oriented through stereotaxic apparatus (coordinates: 1 mm lateral, 1.3 mm rostral to Bregma, 1.7 mm deep to brain surface). Animals were left to recover for a few hours in a warm chamber. […] Mice was perfused at 2% cold paraformaldehyde (thermos fisher) at 7 DPI.
For in-vivo cryosections (14-μm thick) of lesions, immunohistochemistry was performed after 30 mn drying at RT in a moist chamber. For myelin staining, ethanol treatment (100%) was performed for 10 mn at RT. Briefly, sections were permeabilized and blocked in a blocking buffer for 1 h (0.05% Triton X-100/10% normal goat serum/PBS). Then, cryosections were incubated overnight with the following primary antibodies at 4° C.: Mouse anti-APC (CC1 IgG2B; 1:100, calbiochem); Rabbit anti-Olig2 (1:500; Millipore); Mouse anti-Olig1 (IgG1; 1:500; NeuroMab); Rat anti-CD68 (1:500, AbD SEROTEC/BioRad); Rabbit anti-IBA1 (1:500, Wako Fujifilm); Mouse anti-MOOG (mlgG1, 1:20; Hybridoma). Then sections were washed 3 times in 0.05% Triton X-100/PBS and incubated 1 hour at RT with appropriate secondary antibodies conjugated with Alexa Fluor 488, 594 and 647 (1:1000; Molecular Probes or Thermo Fisher) and Dapi (1:5000 from working solution at 5 mg/ml; Life Technologies; D1306). Sections were washed 3 times in 0.05% Triton X-100/PBS and mounted with Fluoromount-G (SouthernBiotech).
We analyzed the lesions at 7 days post-lesion (7 dpl), when newly formed OLs have started to remyelinate the lesion in this model. The lesion area was identified by immunodetection of the high cellular density with DAPI staining, reduction of myelin with myelin oligodendrocyte glycoprotein (MOG), and abundance of microglia/macrophages with Iba1 and Cd68. We determined the effect of the drugs to promote oligodendrogenesis at the lesion site by combinatory immunodetection of Olig2, CC1 and Olig1, allowing to distinguish OPCs (Olig2^high/CC1^−/Olig1^nuclear-cyto cells) and three stages in OL differentiation: iOL1 (Olig2^high/CC1^high/Olig1^− cells), iOL2 (Olig2^high/CC1^high/Olig1^high-cyto cells), and mOL (Olig2^low/CC1^low/Olig1^low cells). […] Given the increase in OL differentiation by the drugs administration, without diminishing the pool of OPCs in the lesion area, we assessed for the proliferative status of OPCs, using Mcm2 and Ki67 proliferative markers, finding that both drugs promote a ˜2-fold increase in the density of proliferative OPCs (FIG. 4D) and in the proportion of proliferative OPCs (FIG. 4E).
To investigate the possible anti-inflammatory and pro-regenerative activity of these drugs, we performed staining for microglia/macrophages (Iba1+ cells), their active phagocytic status (Cd68+ cells), together with myelin (MOG) and cell density (DAPI) to identify the lesion area.

**Q.** `CCCCOc1ccc(C(=O)CCN2CCCCC2)cc1.Cl` [Sm5, Dyclonine hydrochloride] was tested. Which “differentiation index (CC1+/Sox10+ OLs number)” value ([1]; compared to negative controls, FIG. 3B) did it give?
**A.** increased differentiation index

**Q.** What about the “myelination process (MBP+/CaBP+), myelination index” value ([1]; compared to vehicle, FIG. 3C) of the same molecule?
**A.** robust increase

**Q.** What about the “number of oligodendroglial cells in the remyelinating area (Olig2+ cells)” value ([2]; sm5 at 5 μg per g, control 942.5±265.7, FIG. 4B) of the same molecule?
**A.** 1208±281.1 Olig2+ cells per mm^2

**Q.** What about the “density of OPCs (Olig2high/CC1−/Olig1nuclear-cyto cells) in the lesion area” value ([2]; FIG. 4C) of the same molecule?
**A.** did not change

**Q.** What about the “increase of the differentiation ratio (number of OLs per OPC) versus control” value ([2]; FIG. 4F) of the same molecule?
**A.** 2 fold

**Q.** And the “pro-regenerative microglia (Arg1+ cells)” value ([2]; FIG. 4I)?
**A.** corresponding increase

**Q.** And the “actively phagocytic microglia/macrophages (Cd68+ cells)” value ([2]; control 22.45%, FIG. 4H)?
**A.** reduction of their phagocytic population

**Q.** And the “differentiation ratio (number of OLs per OPC)” value ([2]; control 25% (1 OLs for 4 OPCs), FIG. 4F)?
**A.** 50%

**Q.** What about the “surface occupied by Iba1+ microglia/macrophages in the lesion area” value ([2]; control 33.64%, FIG. 4G) of the same molecule?
**A.** trend to reduce

**Q.** And the “increase of each stage of OL differentiation (iOL1, iOL2 & mOL)” value ([2]; versus control)?
**A.** more moderate effect only significant at the iOL2 stage

**Q.** And the “increase in the density of proliferative OPCs (Mcm2, Ki67 markers)” value ([2]; versus control, FIG. 4D)?
**A.** ~2 fold

**Q.** What about the “increase in the proportion of proliferative OPCs” value ([2]; versus control, FIG. 4E) of the same molecule?
**A.** ~2 fold
